In series [1] the test system is pSTAT1. Nature of the series: Phosphorylation inhibition of STAT in human PBMC, IFN-alpha stimulated (flow cytometry). The series is classed as cell-based. The conditions noted are these: 20 min, read-out: IC50 on pSTAT1 inhibition in hPBMC. Here is the method:
Phosphorylation Inhibition of STAT in Human PBMC and Human Whole Blood Testing:
The inhibitory potential of test articles in human PBMC and human whole blood assay was evaluated by the method of flow cytometry.
IFN-alpha will activate JAK1 and TYK2 kinase in T cells by binding to IFN receptors, and then lead to phosphorylation of STAT1 and STAT2. The phosphorylated STAT1 enter nuclear and promote transcription and expression of IFN-gamma. To evaluate the efficacy of TYK2i in T cells, freshly prepared human PBMC or freshly collected human whole blood will be stimulated with certain unit of human IFN-alpha (Universal Type I IFN(1MU), R&D, 11200-2) for 20 mins in incubator. After stimulation, fix cells with Phosflow™ Fix Buffer I (BD, 557870), and then collect fixed cells by centrifugation (500 g, 8 min). Wash cells once with pre-cooled PBS, and then permeabilize cells with cold Perm Buffer III buffer (BD, 558050) for 45 mins on ice. Collect cells by centrifugation (600 g, 8 min) and washed twice with cold PBS. Stain cells with anti-human CD3 (FITC Mouse Anti-Human CD3, BD, 555332) and anti-pSTAT1_Y701(Alexa Fluor 647 Mouse Anti-Stat1 (pY701), BD, 612597) antibodies. Detect pSTAT1 by flow cytometry (CytoFlex S) and analyze data with FlowJo and GraphPad Prism 8 software. IC50 values of test articles were determined using 4-parameter logistic equation.

Series [2] deals with T1, JAK1-JH2 domain (Homo sapiens, UniProt P23458).
T1 construct: IC50 on JH2 domain activity (nM)
T1 sequence (P23458 583-855 limits assumed): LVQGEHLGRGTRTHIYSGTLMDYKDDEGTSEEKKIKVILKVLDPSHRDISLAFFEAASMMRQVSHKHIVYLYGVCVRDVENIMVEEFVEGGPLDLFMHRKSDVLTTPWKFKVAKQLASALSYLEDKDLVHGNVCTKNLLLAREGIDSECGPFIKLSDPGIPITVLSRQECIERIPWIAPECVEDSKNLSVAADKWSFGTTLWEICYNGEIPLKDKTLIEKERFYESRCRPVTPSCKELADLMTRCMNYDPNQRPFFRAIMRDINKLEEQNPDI
Briefly: Binding activity test for JH2 domain of JAK1 (Tb-antibody/tracer FRET). The procedure, abridged:
(§1)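 Compounds tested as 11-point 3-fold serial dilutions against the JH2 domain in a Tb-antibody/tracer FRET binding format. Plates incubated 60 min at 25° C, then overnight at 4° C, before FRET reading.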

The nature of series [3]: Hepatocytes metabolic stability assay. In kind it is in vitro ADME. The settings on record: cryopreserved hepatocytes, human hepatocytes, 1.0×10^6 cells/mL; for CLint scaled at 1 μM: read-out: Human hepatocyte Clint(liver); for half-life at 1 μM: read-out: Human hepatocyte stability T1/2. The gist of the method:
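Cryopreserved hepatocytes (1.0×10^6 cells/mL final) were incubated with test compound at 1 μM at 37 °C and sampled at 0, 15, 30, 60 and 120 min, with acetonitrile quench and LC-MS/MS. k came from log-linear % remaining versus time, giving T1/2 and CLint.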

Series [4] deals with T2, TYK2-JH2 domain (Homo sapiens, UniProt P29597).
T2 construct: IC50 on JH2 domain activity (nM)
T2 sequence (P29597 589-875 limits assumed): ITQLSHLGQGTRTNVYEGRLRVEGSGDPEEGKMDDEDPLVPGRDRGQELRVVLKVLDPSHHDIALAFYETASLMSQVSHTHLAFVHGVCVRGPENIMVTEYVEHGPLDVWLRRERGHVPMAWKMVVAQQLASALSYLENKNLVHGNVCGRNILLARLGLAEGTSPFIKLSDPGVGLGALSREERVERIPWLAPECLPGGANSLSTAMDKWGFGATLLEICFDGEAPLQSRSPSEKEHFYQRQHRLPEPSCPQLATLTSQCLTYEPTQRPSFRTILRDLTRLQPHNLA
Briefly: Binding activity test for JH2 domain of TYK2 (Tb-antibody/tracer FRET). The settings on record: for JAK1/TYK2 selectivity: ratio JAK1-JH2 IC50 / TYK2-JH2 IC50. The gist of the method: as §1

Series [5] addresses T3, Ba/F3-FL-TYK2-P760L cells (Homo sapiens, UniProt P29597, P760L, cells depend on it).
T3 construct: BaF3-FL-T2P760L (nM)
Briefly: Anti-proliferative assay, Ba/F3-FL-TYK2-P760L cells (Cell-Titer Glo). The settings on record: 72 h, read-out: BaF3-FL-T2P760L IC50. The series is classed as cell-based. The gist of the method:
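Ba/F3 cells made IL-3-independent by TEL-fused or full-length mutant JAK-family kinases, seeded at 2000/well and dosed after 24 h with 9 three-fold dilutions topping at 20 μM. Viability after 72 h at 37 °C, 5% CO2 by Cell-Titer Glo ATP luminescence.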

Series [6] deals with pSTAT1. Briefly: Phosphorylation inhibition of STAT in human whole blood, IFN-alpha stimulated (flow cytometry). The series is classed as cell-based. The conditions noted are these: 20 min, read-out: IC50 on pSTAT1 inhibition in h WB. The procedure, abridged: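 Freshly prepared PBMC or freshly collected whole blood stimulated with human Universal Type I IFN-alpha for 20 min, then fixed, permeabilized on ice and stained for CD3 and pSTAT1 (Y701). pSTAT1 read by flow cytometry; IC50 from 4-parameter logistic fit.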

Series [7] is described as follows: Microsomal metabolic stability assay. In kind it is in vitro ADME. The settings on record: pH 7.4, 0.5 mg/mL protein, 1 μM compound. The gist of the method:
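Test article at 1 μM with 0.5 mg/mL microsomal protein and 2 mM NADPH, in 100 mM potassium phosphate pH 7.4 with 1.0 mM EDTA at 37 °C. Sampled at 0–45 min and quantified by LC/MS/MS. T1/2 from the slope of ln % remaining vs time.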

A short description of series [8]: Plasma protein binding by equilibrium dialysis. The series is classed as in vitro ADME. The conditions noted are these: human plasma, equilibrium dialysis 5 hours at 37° C.; read-out: % Bound (human) (converted). The gist of the method:
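Compound spiked into plasma at 0.2 and 2 μM was dialyzed against PBS for 5 h at 37° C with shaking, in duplicate. Plasma and buffer chambers were matrix-matched, protein-precipitated and analysed by LC-MS/MS to derive % unbound, % bound and % recovery.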

The mark [9] stands for this setting: human PBMC, IFN-alpha 20 mins, CD3 cells.
[10] abbreviates: human whole blood, IFN-alpha 20 mins, CD3 cells.
Where [11] appears, read: dog liver microsomes, read-out: Dog LM Clint.
[12] abbreviates: dog liver microsomes, read-out: Dog LM T½.
The mark [13] stands for this setting: human liver microsomes, read-out: Human LM Clint.
Setting [14] is: human liver microsomes, read-out: Human LM T½.
The mark [15] stands for this setting: rat liver microsomes, read-out: Rat LM Clint.
Where [16] appears, read: rat liver microsomes, read-out: Rat LM T½.

SMILES strings stand for the structures. pIC50: −log10 of the molar value. Where two headings read alike, the source gives them in different places.

T3 sequence (P29597 whole entry P760L): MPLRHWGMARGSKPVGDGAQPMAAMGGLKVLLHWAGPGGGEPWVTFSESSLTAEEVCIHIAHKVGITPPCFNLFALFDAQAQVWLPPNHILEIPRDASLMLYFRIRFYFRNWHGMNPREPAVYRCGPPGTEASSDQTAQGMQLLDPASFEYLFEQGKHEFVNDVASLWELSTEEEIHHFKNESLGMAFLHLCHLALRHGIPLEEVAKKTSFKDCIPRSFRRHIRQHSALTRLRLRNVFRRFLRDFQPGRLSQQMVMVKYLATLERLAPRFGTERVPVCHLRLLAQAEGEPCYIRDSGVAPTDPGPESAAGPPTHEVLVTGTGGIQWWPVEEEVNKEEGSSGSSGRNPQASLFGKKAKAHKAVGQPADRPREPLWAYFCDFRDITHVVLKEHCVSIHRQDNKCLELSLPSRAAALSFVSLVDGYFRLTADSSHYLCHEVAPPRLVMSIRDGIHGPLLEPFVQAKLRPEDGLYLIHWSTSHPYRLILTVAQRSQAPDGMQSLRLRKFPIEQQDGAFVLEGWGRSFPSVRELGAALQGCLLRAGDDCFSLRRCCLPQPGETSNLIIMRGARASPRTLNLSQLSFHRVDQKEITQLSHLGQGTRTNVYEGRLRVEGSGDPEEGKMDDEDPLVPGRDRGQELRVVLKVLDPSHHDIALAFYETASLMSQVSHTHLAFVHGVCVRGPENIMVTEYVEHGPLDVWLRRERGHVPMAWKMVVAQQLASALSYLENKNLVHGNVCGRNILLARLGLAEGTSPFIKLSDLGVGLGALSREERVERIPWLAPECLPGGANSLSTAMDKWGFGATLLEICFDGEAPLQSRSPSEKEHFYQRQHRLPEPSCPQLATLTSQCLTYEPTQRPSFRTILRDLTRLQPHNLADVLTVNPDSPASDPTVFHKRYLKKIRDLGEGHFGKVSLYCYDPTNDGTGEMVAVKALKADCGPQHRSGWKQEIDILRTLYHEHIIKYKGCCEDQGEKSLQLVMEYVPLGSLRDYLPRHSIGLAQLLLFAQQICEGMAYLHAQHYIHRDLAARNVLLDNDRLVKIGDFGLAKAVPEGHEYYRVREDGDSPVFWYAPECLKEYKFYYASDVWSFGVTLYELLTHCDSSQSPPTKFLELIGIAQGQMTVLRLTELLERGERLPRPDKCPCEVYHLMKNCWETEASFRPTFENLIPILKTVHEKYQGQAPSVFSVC

Consider `[2H]C([2H])([2H])NC(=O)c1cnc(NC(=O)C2CC2)cc1Nc1ccn2ncc(CC)c2c1OC` [Example 166, 6-(Cyclopropanecarboxamido)-4-((3-ethyl-4-methoxypyrazolo[1,5-a]pyridin-5-yl)amino)-N-(methyl-d3)nicotinamide], for which the pIC50 was 7.68 in series [1] (setting [9]), 7.87 in series [2], 9.81 in series [4] and 6.33 in series [6] (setting [10]). The CLint scaled at 1 μM in series [3] is 11.2 mL/min/kg. Besides, the half-life at 1 μM in series [3] came to 2.61 h. Also, the JAK1/TYK2 selectivity in series [4] amounted to 88.3. For the same compound, the GI50 in series [5] came out at 51.6 nM.
As to `[2H]C([2H])([2H])NC(=O)c1nnc(NC(=O)C2CC2)cc1Nc1csc2ccn(CC)c(=O)c12` [Example 197, 6-(Cyclopropanecarboxamido)-N-(methyl-d3)-4-((5-ethyl-4-oxo-4,5-dihydrothieno[3,2-c]pyridin-3-yl)amino)pyridazine-3-carboxamide], the values for the pIC50 in series [1] (setting [9]) and in series [6] (setting [10]) were 6.37 and 6.06, respectively. In addition, the CLint scaled at 1 μM in series [3] is below 7.35 mL/min/kg. Besides, the half-life at 1 μM in series [3] was above 4 h; in series [7] (setting [12]) it was 1.11 h; in series [7] (setting [14]), 0.298 h; in series [7] (setting [16]) it was 0.0798 h. The GI50 in series [5] was 54.3 nM. In addition, the microsomal CLint at 1 μM in series [7] (setting [11]) stood at 20.8 µL/min/mg; in series [7] (setting [13]), 77.7 µL/min/mg; in series [7] (setting [15]) it was 290 µL/min/mg.
Turning to `[2H]C([2H])([2H])NC(=O)c1cnc(Nc2ccc(F)cn2)cc1Nc1cn(C)c2c(F)cn(CC)c(=O)c12` [Example 125, 4-((5-Ethyl-7-fluoro-1-methyl-4-oxo-4,5-dihydro-1H-pyrrolo[3,2-c]pyridin-3-yl)amino)-6-((5-fluoropyridin-2-yl)amino)-N-(methyl-d3)nicotinamide], the pIC50 was 7.12 in series [1] (setting [9]), 8.84 in series [4] and 6.24 in series [6] (setting [10]). In addition, the GI50 in series [5] turned out to be 31.9 nM.
For `[2H]C([2H])([2H])NC(=O)c1nnc(NC(=O)C2CC2)cc1Nc1cn(C)c2ccn(CC)c(=O)c12` [Example 223, 6-(Cyclopropanecarboxamido)-4-((5-ethyl-1-methyl-4-oxo-4,5-dihydro-1H-pyrrolo[3,2-c]pyridin-3-yl)amino)-N-(methyl-d3)pyridazine-3-carboxamide], the negative logarithm of the IC50 (pIC50) was 7.36 in series [1] (setting [9]) and 6.43 in series [6] (setting [10]). The GI50 in series [5] came to 82.7 nM.
`[2H]C([2H])([2H])NC(=O)c1cnc(NC(=O)C2CC2)cc1Nc1ccn2ncc(C)c2c1OC` [Example 169, 6-(Cyclopropanecarboxamido)-4-((4-methoxy-3-methylpyrazolo[1,5-a]pyridin-5-yl)amino)-N-(methyl-d3)nicotinamide]: the pIC50 was 7.46 in series [1] (setting [9]), 8.06 in series [2], 9.51 in series [4] and 6.37 in series [6] (setting [10]). Further, the CLint scaled at 1 μM in series [3] stood at 8.6 mL/min/kg. Also, the half-life at 1 μM in series [3] was 3.44 h. In addition, the JAK1/TYK2 selectivity in series [4] is reported as 28.3. Further, the GI50 in series [5] came to 64.9 nM.
As for `[2H]C([2H])([2H])NC(=O)c1cnc(NC(=O)C2CC2)cc1Nc1csc2cnn(CC)c(=O)c12` [Example 231, 6-(Cyclopropanecarboxamido)-4-((5-ethyl-4-oxo-4,5-dihydrothieno[2,3-d]pyridazin-3-yl)amino)-N-(methyl-d3)nicotinamide], the pIC50 is 5.45 in series [1] (Homo sapiens, PBMC); 9.01 in series [4]; 4.84 in series [6] (Homo sapiens). The GI50 in series [5] is 65.9 nM.
On to `[2H]C([2H])([2H])NC(=O)c1cnc2cc1Nc1cc(cc(-c3ncn(C4CC4)n3)c1OC)COCc1nc(ccc1F)N2` [Example 83, 11-(1-Cyclopropyl-1H-1,2,4-triazol-3-yl)-18-fluoro-10-methoxy-N-(methyl-d3)-15-oxa-2,4,8,21-tetraazatetracyclo[15.3.1.1^{3,7}.1^{9,13}]tricosa-1(20),3,5,7(23),9(22),10,12,17(21),18-nonaene-6-carboxamide], for which the values for the pIC50 in series [1] (setting [9]) and in series [6] (setting [10]) were 6.95 and 5.80, respectively. Further, in series [5], the GI50 was 38.7 nM. Further, the microsomal CLint at 1 μM in series [7] (setting [11]) is 26.7 µL/min/mg; in series [7] (setting [13]) it was below 11.5 µL/min/mg; in series [7] (setting [15]), below 11.5 µL/min/mg. Also, the half-life at 1 μM in series [7] (setting [12]) is 0.866 h; in series [7] (setting [14]), above 2 h; in series [7] (setting [16]), above 2 h.
On to `[2H]C([2H])([2H])NC(=O)c1cnc(NC(=O)C2CC2)cc1Nc1cn(CC2CC2)c2ncn(CC)c(=O)c12` [Example 213, 6-(Cyclopropanecarboxamido)-4-((7-(cyclopropylmethyl)-3-ethyl-4-oxo-4,7-dihydro-3H-pyrrolo[2,3-d]pyrimidin-5-yl)amino)-N-(methyl-d3)nicotinamide], for which the pIC50 is 6.97 in series [1] (setting [9]), 9.60 in series [4] and 6.42 in series [6] (setting [10]). In addition, the fraction unbound at 5 h in series [8] is 0.025. Further, the GI50 in series [5] was determined as 74.5 nM.
For the compound `[2H]C([2H])([2H])NC(=O)c1nnc2cc1Nc1cc(cc(-c3ncn(C)n3)c1OC)COCc1cc(F)cc(n1)N2` [Example 71, 19-Fluoro-10-methoxy-N-(methyl-d3)-11-(1-methyl-1H-1,2,4-triazol-3-yl)-15-oxa-2,4,5,8,21-pentaazatetracyclo[15.3.1.1^{3,7}.1^{9,13}]tricosa-1(21),3,5,7(23),9(22),10,12,17,19-nonaene-6-carboxamide], the negative logarithm of the IC50 (pIC50) in series [1] (setting [9]) is 7.10; in series [6] (setting [10]), 6.08. For the same compound, the GI50 in series [5] is 48.7 nM. The microsomal CLint at 1 μM stood at 5.63 µL/min/mg in series [7] (setting [11]), 27.4 µL/min/mg in series [7] (setting [13]) and 21.9 µL/min/mg in series [7] (setting [15]). Moreover, the half-life at 1 μM was determined as 4.1 h in series [7] (setting [12]), 0.843 h in series [7] (setting [14]) and 1.05 h in series [7] (setting [16]).

The values are drawn from patent US20250115597A1, “TYK2 INHIBITORS AND COMPOSITIONS AND METHODS THEREOF” (LYNK PHARMACEUTICALS CO. LTD., priority 2021, published 2025).
